The source of these data is ChEMBL document CHEMBL5346903, “Discovery of novel and bioavailable histone deacetylases and cyclin-dependent kinases dual inhibitor to impair the stemness of leukemia cells” (Eur J Med Chem, 2023).

The subject of data set [1] is HL-60. The data set is described as follows: Induction of differentiation in human HL-60 cells assessed as increase in CD11b positive cells at 1.2 uM incubated for 24 hrs by FITC staining based flow cytometry (reference value: 1.12 %). The data set is classed as functional. Background: Flow cytometry measures light scatter and fluorescence of single cells or particles in a stream.

Data set [2] relates to U-937. The experiment in a line: Induction of apoptosis in human U-937 cells assessed as late apoptotic cells at 0.6 uM incubated for 48 hrs by annexin V-FITC/PI satining based flow cytometry (reference value: 4.23 %). It is filed as functional.
Data set [3] concerns HL-60. The data set is described as follows: Induction of differentiation in human HL-60 cells assessed as increase in CD11b positive cells at 0.6 uM incubated for 24 hrs by FITC staining based flow cytometry (reference value: 1.12 %). The data set is classed as functional.
Data set [4] deals with U-937. The data set is described as follows: Induction of apoptosis in human U-937 cells assessed as viable cells at 1.2 uM incubated for 48 hrs by annexin V-FITC/PI satining based flow cytometry (reference value: 93.7 %). The data set is classed as functional. The conditions noted are these: read-out: Activity.
The subject of data set [5] is U-937. The data set is described as follows: Induction of differentiation in human U-937 cells assessed as increase in CD11b positive cells at 5 uM incubated for 48 hrs by FITC staining based flow cytometry (reference value: […] %). It is filed as functional.
The test system of another data set is Kasumi 1. The experiment in a line: Cytotoxicity against human Kasumi 1 cells assessed as CD34positive CD38negative leukemic stem cell-like cells sub-population at 0.5 uM incubated for 24 hrs by APC/FITC satining based flow cytometry (reference value: 95.8 %). It is filed as functional.
The subject of data set [6] is HL-60. The data set is described as follows: Induction of apoptosis in human HL-60 cells assessed as late apoptotic cells at 0.6 uM incubated for 48 hrs by annexin V-FITC/PI satining based flow cytometry (reference value: 2.83 %). It is filed as functional.
For data set [7], the system named is U-937. The experiment in a line: Induction of apoptosis in human U-937 cells assessed as viable cells at 2.5 uM incubated for 48 hrs by annexin V-FITC/PI satining based flow cytometry (reference value: 93.7 %). It is filed as functional. The conditions noted are these: read-out: Activity.
In data set [8] the test system is U-937. The data set is described as follows: Induction of apoptosis in human U-937 cells assessed as viable cells at 5 uM incubated for 48 hrs by annexin V-FITC/PI satining based flow cytometry (reference value: 93.7 %). The data set is classed as functional. As to conditions: read-out: Activity.
For data set [9], the system named is HL-60. The data set is described as follows: Induction of apoptosis in human HL-60 cells assessed as necrotic cells at 1.2 uM incubated for 48 hrs by annexin V-FITC/PI satining based flow cytometry (reference value: 0.04 %). The data set is classed as functional.
For data set [10], the system named is U-937. The data set is described as follows: Induction of apoptosis in human U-937 cells assessed as early apoptotic cells at 2.5 uM incubated for 48 hrs by annexin V-FITC/PI satining based flow cytometry (reference value: 1.93 %). It is filed as functional.
Data set [11] concerns HL-60. The data set is described as follows: Induction of apoptosis in human HL-60 cells assessed as late apoptotic cells at 2.5 uM incubated for 48 hrs by annexin V-FITC/PI satining based flow cytometry (reference value: 2.83 %). It is filed as functional.
The nature of data set [12]: Half life in Sprague-Dawley rat at 25 mg/kg, po measured upto 8 hrs by LC/MS-MS analysis. The data set is classed as ADME, organism-based. The conditions noted are these: in vivo.
Data set [13] has as its system HL-60. The data set is described as follows: Induction of differentiation in human HL-60 cells assessed as increase in CD11b positive cells at 1 uM incubated for 24 hrs by FITC staining based flow cytometry (reference value: 1.45 %). It is filed as functional.
For data set [14], the system named is HL-60. The data set is described as follows: Induction of apoptosis in human HL-60 cells assessed as late apoptotic cells at 0.2 uM incubated for 48 hrs by annexin V-FITC/PI satining based flow cytometry (reference value: 1.33 %). The data set is classed as functional.
In data set [15] the test system is U-937. The experiment in a line: Induction of apoptosis in human U-937 cells assessed as viable cells at 0.5 uM incubated for 48 hrs by annexin V-FITC/PI satining based flow cytometry (reference value: 90.0 %). The data set is classed as functional. The conditions noted are these: read-out: Activity.
In data set [16] the test system is U-937. The experiment in a line: Induction of differentiation in human U-937 cells assessed as increase in CD11b positive cells at 0.5 uM incubated for 48 hrs by FITC staining based flow cytometry (reference value: 2.72 %). The data set is classed as functional.
Data set [17] deals with HL-60. The data set is described as follows: Induction of apoptosis in human HL-60 cells assessed as viable cells at 2 uM incubated for 48 hrs by annexin V-FITC/PI satining based flow cytometry (reference value: 97.4 %). The data set is classed as functional. As to conditions: read-out: Activity.
Data set [18] has as its system HL-60. The experiment in a line: Upregulation of Ac-Histone 3 level in human HL-60 cells incubated for 6 hrs by Western blot analysis. As to conditions: dose <= 1000.0 nM. It is filed as functional, cell-based. In general terms: A western blot detects proteins with antibodies after separation by electrophoresis.
Data set [19] in a line: Bioavailability in Sprague-Dawley rat at 25 mg/kg, po measured upto 8 hrs by LC/MS-MS analysis. The data set is classed as ADME, organism-based. As to conditions: in vivo.
In data set [20] the test system is HL-60. The data set is described as follows: Induction of apoptosis in human HL-60 cells assessed as late apoptotic cells at 0.5 uM incubated for 48 hrs by annexin V-FITC/PI satining based flow cytometry (reference value: 1.33 %). The data set is classed as functional.
In data set [21] the test system is U-937. The data set is described as follows: Induction of apoptosis in human U-937 cells assessed as late apoptotic cells at 0.2 uM incubated for 48 hrs by annexin V-FITC/PI satining based flow cytometry (reference value: 7.10 %). It is filed as functional.
Another data set has as its target Histone deacetylase 3 (Homo sapiens, UniProt O15379). The experiment in a line: Inhibition of recombinant human HDAC3 using HDAC substrate incubated for 30 mins by fluorescence based assay.
Data set [22] deals with Cyclin-C/Cyclin-dependent kinase 19 (Homo sapiens) (UniProt Q9BWU1+P24863). The data set is described as follows: Inhibition of CDK19/cyclinC (unknown origin) at 100 nM preincubated for 20 mins followed by [gamma-33P]ATP addition measured after 120 mins in presence of ATP by Hot-SpotSM kinase assay relative to control. The conditions noted are these: time 140.0 min. The data set is classed as protein-complex assay.

A further data set has as its target Histone deacetylase 8 (Homo sapiens, UniProt Q9BY41). The experiment in a line: Inhibition of recombinant human HDAC8 using HDAC substrate incubated for 30 mins by fluorescence based assay.
In data set [23] the test system is HL-60. The data set is described as follows: Downregulation of Pol-II S5 level in human HL-60 cells incubated for 6 hrs by Western blot analysis. As to conditions: dose <= 1000.0 nM. It is filed as functional, cell-based.
Data set [24] in a line: Half life in Sprague-Dawley rat at 5 mg/kg, iv measured upto 6 hrs by LC/MS-MS analysis. It is filed as ADME, organism-based. As to conditions: in vivo.
In another data set the target is Histone deacetylase 5 (Homo sapiens, UniProt Q9UQL6). The experiment in a line: Inhibition of recombinant human HDAC5 using HDAC substrate incubated for 30 mins by fluorescence based assay.
Histone deacetylase 5, sequence (Q9UQL6 whole entry): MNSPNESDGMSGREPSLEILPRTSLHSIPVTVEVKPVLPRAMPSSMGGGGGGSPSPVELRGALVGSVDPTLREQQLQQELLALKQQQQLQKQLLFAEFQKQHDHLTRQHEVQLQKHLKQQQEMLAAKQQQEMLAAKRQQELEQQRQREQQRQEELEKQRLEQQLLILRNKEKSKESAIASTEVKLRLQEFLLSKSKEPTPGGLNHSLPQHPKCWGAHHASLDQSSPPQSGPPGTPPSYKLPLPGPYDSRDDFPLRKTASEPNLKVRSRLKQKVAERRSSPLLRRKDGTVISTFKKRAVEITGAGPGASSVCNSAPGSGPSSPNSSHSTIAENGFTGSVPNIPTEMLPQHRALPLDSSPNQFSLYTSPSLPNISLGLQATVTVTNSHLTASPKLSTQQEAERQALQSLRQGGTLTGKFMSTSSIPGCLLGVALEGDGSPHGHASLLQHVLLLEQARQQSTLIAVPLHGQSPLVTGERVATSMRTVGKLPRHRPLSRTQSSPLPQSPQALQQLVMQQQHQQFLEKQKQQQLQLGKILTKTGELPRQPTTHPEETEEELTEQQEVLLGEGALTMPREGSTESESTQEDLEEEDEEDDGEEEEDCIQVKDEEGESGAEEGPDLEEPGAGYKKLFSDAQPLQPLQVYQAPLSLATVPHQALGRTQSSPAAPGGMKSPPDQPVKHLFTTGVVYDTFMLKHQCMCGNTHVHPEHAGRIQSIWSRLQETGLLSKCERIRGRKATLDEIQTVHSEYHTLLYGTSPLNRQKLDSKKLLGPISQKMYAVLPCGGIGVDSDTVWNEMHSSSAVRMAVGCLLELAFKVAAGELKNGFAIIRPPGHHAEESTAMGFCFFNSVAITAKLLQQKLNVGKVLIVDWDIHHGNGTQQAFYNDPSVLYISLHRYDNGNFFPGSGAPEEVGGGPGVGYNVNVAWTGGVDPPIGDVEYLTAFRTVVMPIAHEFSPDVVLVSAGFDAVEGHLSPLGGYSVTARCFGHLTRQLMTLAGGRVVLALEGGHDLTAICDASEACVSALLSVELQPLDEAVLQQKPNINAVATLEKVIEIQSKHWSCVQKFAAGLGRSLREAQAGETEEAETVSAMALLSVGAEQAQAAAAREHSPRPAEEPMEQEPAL
In data set [25] the test system is HL-60. The experiment in a line: Induction of apoptosis in human HL-60 cells assessed as late apoptotic cells at 2 uM incubated for 48 hrs by annexin V-FITC/PI satining based flow cytometry (reference value: 1.33 %). The data set is classed as functional.
The test system of data set [26] is U-937. The experiment in a line: Induction of apoptosis in human U-937 cells assessed as early apoptotic cells at 1 uM incubated for 48 hrs by annexin V-FITC/PI satining based flow cytometry (reference value: 0.945 %). The data set is classed as functional.
The test system of data set [27] is HL-60. The experiment in a line: Induction of differentiation in human HL-60 cells assessed as increase in CD11b positive cells at 0.5 uM incubated for 24 hrs by FITC staining based flow cytometry (reference value: 1.45 %). It is filed as functional.
The target of another data set is Histone deacetylase 4 (Homo sapiens, UniProt P56524). The data set is described as follows: Inhibition of recombinant human HDAC4 using HDAC substrate incubated for 30 mins by fluorescence based assay.
Histone deacetylase 4, sequence (P56524 whole entry): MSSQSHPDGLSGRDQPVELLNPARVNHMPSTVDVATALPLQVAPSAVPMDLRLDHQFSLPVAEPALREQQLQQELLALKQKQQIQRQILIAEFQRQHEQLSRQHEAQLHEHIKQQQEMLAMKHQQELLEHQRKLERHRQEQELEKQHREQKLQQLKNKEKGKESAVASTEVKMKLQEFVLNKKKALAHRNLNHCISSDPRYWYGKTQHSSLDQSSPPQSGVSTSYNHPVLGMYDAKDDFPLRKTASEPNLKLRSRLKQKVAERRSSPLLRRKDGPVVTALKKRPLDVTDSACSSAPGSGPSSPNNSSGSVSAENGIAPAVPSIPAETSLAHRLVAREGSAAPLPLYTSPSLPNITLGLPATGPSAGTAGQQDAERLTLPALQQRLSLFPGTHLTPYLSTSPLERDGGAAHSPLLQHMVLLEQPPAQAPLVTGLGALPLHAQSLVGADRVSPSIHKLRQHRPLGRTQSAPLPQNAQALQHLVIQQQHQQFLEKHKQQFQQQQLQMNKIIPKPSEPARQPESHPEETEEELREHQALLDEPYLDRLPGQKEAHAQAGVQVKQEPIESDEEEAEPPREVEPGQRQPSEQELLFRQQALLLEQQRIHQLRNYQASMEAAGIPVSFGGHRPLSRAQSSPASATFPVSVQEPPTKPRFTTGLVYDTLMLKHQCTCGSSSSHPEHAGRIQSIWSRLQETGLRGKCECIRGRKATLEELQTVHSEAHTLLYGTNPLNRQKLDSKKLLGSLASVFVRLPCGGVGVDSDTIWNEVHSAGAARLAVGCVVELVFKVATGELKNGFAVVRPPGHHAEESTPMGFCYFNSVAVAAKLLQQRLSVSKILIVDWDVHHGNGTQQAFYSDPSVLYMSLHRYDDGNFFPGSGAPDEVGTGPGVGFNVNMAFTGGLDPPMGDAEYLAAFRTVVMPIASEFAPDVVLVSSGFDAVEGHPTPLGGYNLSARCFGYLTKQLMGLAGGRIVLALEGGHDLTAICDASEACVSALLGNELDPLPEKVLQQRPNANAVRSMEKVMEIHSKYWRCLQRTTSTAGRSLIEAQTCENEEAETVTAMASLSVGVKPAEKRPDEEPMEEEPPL
Data set [28] deals with U-937. The data set is described as follows: Induction of differentiation in human U-937 cells assessed as increase in CD11b positive cells at 1.5 uM incubated for 48 hrs by FITC staining based flow cytometry (reference value: 2.72 %). The data set is classed as functional.
For data set [29], the target named is Protein deacetylase HDAC6 (Homo sapiens, UniProt Q9UBN7). The data set is described as follows: Inhibition of recombinant human HDAC6 using HDAC substrate incubated for 30 mins by fluorescence based assay.
Protein deacetylase HDAC6, sequence (Q9UBN7 whole entry): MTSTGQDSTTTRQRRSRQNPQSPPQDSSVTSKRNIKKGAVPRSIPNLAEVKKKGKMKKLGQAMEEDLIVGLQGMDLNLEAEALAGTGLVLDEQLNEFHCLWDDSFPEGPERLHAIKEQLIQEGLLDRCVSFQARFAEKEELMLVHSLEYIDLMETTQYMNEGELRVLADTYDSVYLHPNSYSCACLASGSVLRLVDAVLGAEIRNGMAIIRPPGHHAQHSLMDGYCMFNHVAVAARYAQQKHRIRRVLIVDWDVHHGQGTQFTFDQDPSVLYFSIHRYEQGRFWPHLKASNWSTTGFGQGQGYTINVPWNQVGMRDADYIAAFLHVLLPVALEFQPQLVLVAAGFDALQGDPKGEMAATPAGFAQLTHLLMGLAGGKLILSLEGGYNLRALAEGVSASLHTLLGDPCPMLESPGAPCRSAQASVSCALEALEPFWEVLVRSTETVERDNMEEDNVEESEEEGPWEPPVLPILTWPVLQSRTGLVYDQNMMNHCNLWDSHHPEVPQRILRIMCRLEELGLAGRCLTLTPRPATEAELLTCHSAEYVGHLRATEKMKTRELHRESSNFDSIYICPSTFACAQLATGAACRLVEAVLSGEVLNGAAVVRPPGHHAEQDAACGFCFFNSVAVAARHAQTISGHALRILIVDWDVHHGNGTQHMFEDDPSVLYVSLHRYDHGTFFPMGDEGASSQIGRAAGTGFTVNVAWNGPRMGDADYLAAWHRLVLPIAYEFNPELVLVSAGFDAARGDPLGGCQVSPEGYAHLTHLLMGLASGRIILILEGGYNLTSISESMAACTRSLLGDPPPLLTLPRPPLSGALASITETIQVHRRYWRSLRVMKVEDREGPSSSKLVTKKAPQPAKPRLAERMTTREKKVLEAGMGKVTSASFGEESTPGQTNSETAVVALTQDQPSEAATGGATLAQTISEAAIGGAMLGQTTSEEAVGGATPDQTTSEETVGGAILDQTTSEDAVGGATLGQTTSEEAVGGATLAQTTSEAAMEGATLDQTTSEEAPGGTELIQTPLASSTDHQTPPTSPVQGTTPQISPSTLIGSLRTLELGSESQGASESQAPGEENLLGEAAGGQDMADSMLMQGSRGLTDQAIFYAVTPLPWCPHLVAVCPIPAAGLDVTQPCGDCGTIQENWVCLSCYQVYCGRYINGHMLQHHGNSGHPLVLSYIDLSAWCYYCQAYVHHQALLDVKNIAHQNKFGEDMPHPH

Histone deacetylase 3, sequence (O15379 whole entry): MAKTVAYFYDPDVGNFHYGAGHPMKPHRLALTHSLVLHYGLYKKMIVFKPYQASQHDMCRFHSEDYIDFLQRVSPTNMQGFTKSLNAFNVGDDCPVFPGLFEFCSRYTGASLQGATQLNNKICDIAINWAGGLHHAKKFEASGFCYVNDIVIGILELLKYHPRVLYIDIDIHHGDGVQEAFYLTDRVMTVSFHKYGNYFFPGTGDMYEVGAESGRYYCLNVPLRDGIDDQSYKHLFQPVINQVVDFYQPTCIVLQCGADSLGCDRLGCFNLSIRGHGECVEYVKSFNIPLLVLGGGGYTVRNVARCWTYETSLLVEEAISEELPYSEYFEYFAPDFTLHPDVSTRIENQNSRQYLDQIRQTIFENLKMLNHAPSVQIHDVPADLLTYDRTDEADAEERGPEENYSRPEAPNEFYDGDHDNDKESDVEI
Histone deacetylase 8, sequence (Q9BY41 whole entry): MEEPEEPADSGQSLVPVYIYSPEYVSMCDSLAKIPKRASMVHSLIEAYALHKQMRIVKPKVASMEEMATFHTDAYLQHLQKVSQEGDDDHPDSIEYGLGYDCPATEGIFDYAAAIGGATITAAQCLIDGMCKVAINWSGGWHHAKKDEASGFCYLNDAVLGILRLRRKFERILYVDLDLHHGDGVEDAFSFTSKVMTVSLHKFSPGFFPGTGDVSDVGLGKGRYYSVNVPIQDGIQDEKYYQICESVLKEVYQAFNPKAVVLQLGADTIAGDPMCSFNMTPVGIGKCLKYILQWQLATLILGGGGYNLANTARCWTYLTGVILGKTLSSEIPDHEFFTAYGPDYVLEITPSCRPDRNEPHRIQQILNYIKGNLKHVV

As for `Nc1cc(F)ccc1NC(=O)c1ccc(CNC(=O)/C=C/c2cccnc2)cc1` [TUCIDINOSTAT], the Activity in the data set on HL-60 [1] amounted to 51%; with U-937 [2], 4.81%; with HL-60 [3], 24.4%; with U-937 [5] it was 5.7%; in the data set with Kasumi 1, 93.9%; in the data set on HL-60 [6] it was 2.27%. The Activity with HL-60 [9] was determined as 0.04%; in the data set with U-937 [10], 2.67%; in the data set on HL-60 [11], 37.9%. Further, the viability at 1.2 µM in the data set with U-937 [4] came to 90.3%. The viability at 2.5 µM in the data set on U-937 [7] is 87.5%. Further, the viability at 5 µM in the data set on U-937 [8] came to 72.6%.
As to `Nc1ccccc1NC(=O)c1ccc(NC(=O)c2n[nH]cc2NC(=O)c2c(Cl)cccc2Cl)cc1`, the t1/2 in data set [12] worked out at 82.2 min; in data set [24] it was 6.6 min. In addition, the Activity in the data set with HL-60 [13] is 37.6%; with HL-60 [14] it was 1.97%; with U-937 [16], 3.96%; with HL-60 [18] it was “Dose-Dependent Effect”; in the data set with HL-60 [20] it was 3.16%; in the data set on U-937 [21] it was 8.15%. The Activity result in the data set on HL-60 [23] was “Dose-Dependent Effect”; in the data set with HL-60 [25] it was 54.5%; in the data set with U-937 [26], 1.92%; with HL-60 [27] it was 6.09%; in the data set on U-937 [28], 16%. In the data set on U-937 [15], the viability at 0.5 µM is 79.8%. Also, in the data set with HL-60 [17], the viability at 2 µM stood at 5.25%. The bioavailability (commonly the share of a dose that reaches the circulation, judged against a reference dose that is usually intravenous) in [19] was determined as 56.7%. Also, the IC50 (in general, the midpoint of a concentration-inhibition curve) on Histone deacetylase 3 is 40.4 nM; at Histone deacetylase 8, 1010 nM; on Histone deacetylase 5 it was > 1000 nM; at Histone deacetylase 4, > 1000 nM; in data set [29], 723 nM. Moreover, the inhibition (usually the change of the read-out against control, counted positive when it falls) in data set [22] stood at 23.1%.
